In PubChem BioAssay AID1259411 (Chemical Carcinogenesis Research Information System (CCRIS), 2018):
The source made the active and inactive calls. The rule behind the calls is not given here.

System: rodent carcinogenicity bioassays, tumor incidence
Assay: CCRIS carcinogenicity studies
How it was run: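 Archive of carcinogenicity, mutagenicity, tumor promotion and tumor inhibition results drawn from journals, NCI reports and other sources, expert-reviewed; covers 1985-2011 and is no longer updated.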

C[CH2][Pb]([CH2]C)([CH2]C)[CH2]C
carcinogen call (Species: MOUSE, Strain/Sex: ICR/FEMALE, Route: SUBCUTANEOUS, Dose: 0, 0.1 MG IN TRICAPRYLIN AT DAYS 1 AND 7 OF AGE AND 0, 0.2 MG AT DAYS 14 AND 21 OF AGE FOR A TOTAL DOSE OF 0, 0.6 MG (ST, Dose: 0, 0.1 MG IN TRICAPRYLIN AT DAYS 1 AND 7 OF AGE AND 0, 0.2 MG AT DAYS 14 AND 21 OF AGE FOR A TOTAL DOSE OF 0, 0.6 MG (ST, Tumor Site: Type of Lesion: HEMATOPOIETIC SYSTEM: LYMPHOMA): active; positive
carcinogen call (Species: MOUSE, Strain/Sex: ICR/MALE, Route: SUBCUTANEOUS, Dose: 0, 0.1 MG IN TRICAPRYLIN ON DAYS 1 AND 7 OF AGE AND 0, 0.2 MG ON DAYS 14 AND 21 OF AGE FOR A TOTAL DOSE OF 0, 0.6 MG (ST, Dose: 0, 0.1 MG IN TRICAPRYLIN ON DAYS 1 AND 7 OF AGE AND 0, 0.2 MG ON DAYS 14 AND 21 OF AGE FOR A TOTAL DOSE OF 0, 0.6 MG (ST): inactive; negative

ClC1C(Cl)C(Cl)C(Cl)C(Cl)C1Cl (configuration not stated)
carcinogen call (Species: MOUSE, Strain/Sex: B6C3F1/FEMALE, Route: ORAL, Dose: 0, 80, 160 PPM IN DIET FOR 80 WK (STUDY DURATION: 90-91 WK), Dose: 0, 80, 160 PPM IN DIET FOR 80 WK (STUDY DURATION: 90-91 WK)): inactive; negative
carcinogen call (Species: MOUSE, Strain/Sex: CF-1/MALE,FEMALE, Route: ORAL, Dose: 200 MG/KG IN DIET, Tumor Site: Type of Lesion: LIVER: BENIGN TUMOR OR MALIGNANT TUMOR): active; positive
carcinogen call (Species: MOUSE, Strain/Sex: CF-1/MALE,FEMALE, Route: ORAL, Dose: 400 MG/KG IN DIET, Tumor Site: Type of Lesion: LIVER: BENIGN TUMOR OR MALIGNANT TUMOR): active; positive
carcinogen call (Species: MOUSE, Strain/Sex: DD/MALE, Route: ORAL, Dose: 0, 6.6, 66, 660 PPM IN BASAL DIET UNTIL SACRIFICE AT 24 WK (STUDY DURATION: 24 WK), Dose: 0, 6.6, 66, 660 PPM IN BASAL DIET UNTIL SACRIFICE AT 24 WK (STUDY DURATION: 24 WK), Tumor Site: Type of Lesion: LIVER: HEPATOMA): active; positive
carcinogen call (Species: MOUSE, Strain/Sex: MALE,FEMALE, Route: ORAL, Tumor Site: Type of Lesion: LIVER: BENIGN TUMOR OR MALIGNANT TUMOR): active; positive
carcinogen call (Species: RAT, Strain/Sex: OSBORNE-MENDEL/FEMALE, Route: ORAL, Dose: 0, 135, 270 PPM TWA, IN DIET FOR 80 WK (STUDY DURATION: 108-110 WK), Dose: 0, 135, 270 PPM TWA, IN DIET FOR 80 WK (STUDY DURATION: 108-110 WK)): inactive; negative
carcinogen call (Species: RAT, Strain/Sex: OSBORNE-MENDEL/MALE, Route: ORAL, Dose: 0, 236, 472 PPM TWA, IN DIET FOR 80 WK (STUDY DURATION: 109-110 WK), Dose: 0, 236, 472 PPM TWA, IN DIET FOR 80 WK (STUDY DURATION: 109-110 WK)): inactive; negative
carcinogen call (Species: Rat, Strain/Sex: Wistar/Female (50/Group), Route: Oral, Dose: 0, 0.06, 0.57, 5.6, 23.1 mg/kg/day of 99.5-99.7% lindane in diet for 18 mo, study duration 18 mo, Dose: 0, 0.06, 0.57, 5.6, 23.1 mg/kg/day of 99.5-99.7% lindane in diet for 18 mo, study duration 18 mo): inactive; negative
carcinogen call (Species: Rat, Strain/Sex: Wistar/Male (50/Group), Route: Oral, Dose: 0, 0.05, 0.45, 4.5, 18.7 mg/kg/day of 99.5-99.7% lindane in diet for 18 mo, study duration 18 mo, Dose: 0, 0.05, 0.45, 4.5, 18.7 mg/kg/day of 99.5-99.7% lindane in diet for 18 mo, study duration 18 mo): inactive; negative

CC(=O)N(O[C@@H]1O[C@H](C(=O)O)[C@@H](O)[C@H](O)[C@H]1O)c1ccc2c(c1)Cc1ccccc1-2
carcinogen call (Species: RAT, Strain/Sex: F344/MALE, Route: INJECTION, Dose: 0, 1 UMOL IN 0.5 ML OF SOLUTION CONTAINING 0.4 ML PHOSPHATE BUFFERED SALINE/ GENTAMYCIN (PH 7) AND 0.1 ML DMSO INJECTED): inactive; negative
carcinogen call (Species: RAT, Strain/Sex: F344/MALE, Route: INJECTION, Dose: 0, 1 UMOL IN 0.5 ML OF SOLUTION CONTAINING 0.4 ML PHOSPHATE BUFFERED SALINE/ GENTAMYCIN (PH 8) AND 0.1 ML DMSO INJECTED): inactive; negative

CN(C)P(=O)(N(C)C)N(C)C
carcinogen call (Species: RAT, Route: INHALATION, Tumor Site: Type of Lesion: NASAL CAVITY): active; positive
carcinogen call (Species: RAT, Strain/Sex: STRAIN-CD/MALE,FEMALE, Route: INHALATION, Dose: 0, 10, 50, 100, 400, 4000 PPB FOR 6-24 MO (STUDY DURATION: 2 YR), Dose: 0, 10, 50, 100, 400, 4000 PPB FOR 6-24 MO (STUDY DURATION: 2 YR), Tumor Site: Type of Lesion: NASAL CAVITY: EPIDERMOID CARCINOMA): active; positive
carcinogen call (Species: RAT, Strain/Sex: STRAIN-CD/MALE,FEMALE, Route: INHALATION, Dose: 0, 10, 50, 100, 400, 4000 PPB FOR 6-24 MO, STUDY DURATION: 24-25 MO, Dose: 0, 10, 50, 100, 400, 4000 PPB FOR 6-24 MO, STUDY DURATION: 24-25 MO, Tumor Site: Type of Lesion: NASAL CAVITY: SQUAMOUS CELL PAPILLOMA, EPIDERMOID CARCINOMA, NASAL CAVITY (ADENOID): SQUAMOUS CELL CARCINOMA): active; positive

O=[N+]([O-])c1cccc2ccccc12
carcinogen call (Species: MOUSE, Strain/Sex: B6C3F1/FEMALE, Route: ORAL, Dose: 0, 0.06, 0.12% OF DIET, Dose: 0, 0.06, 0.12% OF DIET): inactive; negative
carcinogen call (Species: MOUSE, Strain/Sex: B6C3F1/MALE, Route: ORAL, Dose: 0, 0.06, 0.12% OF DIET, Dose: 0, 0.06, 0.12% OF DIET): inactive; negative
carcinogen call (Species: RAT, Strain/Sex: F344/FEMALE, Route: ORAL, Dose: 0, 0.06, 0.18% OF DIET, Dose: 0, 0.06, 0.18% OF DIET): inactive; negative
carcinogen call (Species: RAT, Strain/Sex: F344/MALE, Route: ORAL, Dose: 0, 0.06, 0.18% OF DIET, Dose: 0, 0.06, 0.18% OF DIET): inactive; negative

NC(=S)Nc1ccccc1
carcinogen call (Species: MOUSE, Strain/Sex: B6C3F1/FEMALE, Route: ORAL, Dose: 0, 150, 300 PPM IN DIET, Dose: 0, 150, 300 PPM IN DIET): inactive; negative
carcinogen call (Species: MOUSE, Strain/Sex: B6C3F1/MALE, Route: ORAL, Dose: 0, 150, 300 PPM IN DIET, Dose: 0, 150, 300 PPM IN DIET): inactive; negative
carcinogen call (Species: RAT, Strain/Sex: F344/FEMALE, Route: ORAL, Dose: 0, 60, 120 PPM IN DIET, Dose: 0, 60, 120 PPM IN DIET): inactive; negative
carcinogen call (Species: RAT, Strain/Sex: F344/MALE, Route: ORAL, Dose: 0, 60, 120 PPM IN DIET, Dose: 0, 60, 120 PPM IN DIET): inactive; negative

O=C(CCl)c1ccccc1
carcinogen call (Species: MOUSE, Strain/Sex: B6C3F1/FEMALE, Route: INHALATION, Dose: 0, 2, 4 MG/M3 6 HR/D 5 D/WK FOR 103 WK (STUDY DURATION: 105 WK), Dose: 0, 2, 4 MG/M3 6 HR/D 5 D/WK FOR 103 WK (STUDY DURATION: 105 WK)): inactive; negative
carcinogen call (Species: MOUSE, Strain/Sex: B6C3F1/MALE, Route: INHALATION, Dose: 0, 2, 4 MG/M3 6 HR/D 5 D/WK FOR 103 WK (STUDY DURATION: 105 WK), Dose: 0, 2, 4 MG/M3 6 HR/D 5 D/WK FOR 103 WK (STUDY DURATION: 105 WK)): inactive; negative
carcinogen call (Species: RAT, Strain/Sex: F344/FEMALE, Route: INHALATION, Dose: 0, 1, 2 MG/M3 6 HR/D 5 D/WK FOR 103 WK (STUDY DURATION: 105 WK), Dose: 0, 1, 2 MG/M3 6 HR/D 5 D/WK FOR 103 WK (STUDY DURATION: 105 WK), Tumor Site: Type of Lesion: MAMMARY GLAND: FIBROADENOMA): equivocal
carcinogen call (Species: RAT, Strain/Sex: F344/MALE, Route: INHALATION, Dose: 0, 1, 2 MG/M3 6 HR/D 5 D/WK FOR 103 WK (STUDY DURATION: 105 WK), Dose: 0, 1, 2 MG/M3 6 HR/D 5 D/WK FOR 103 WK (STUDY DURATION: 105 WK)): inactive; negative

COc1ccc(OC)c(N=Nc2c(O)ccc3ccccc23)c1
carcinogen call (Species: MOUSE, Strain/Sex: C57 X 1F F1, Route: BLADDER IMPLANT, Dose: 0, 12.5% SUSPENSION IN PARAFFIN WAX (STUDY DURATION: 40 WK), Tumor Site: Type of Lesion: BLADDER: CARCINOMA): active; positive

[As]
carcinogen call (Species: HUMAN, Route: INHALATION, ORAL, Tumor Site: Type of Lesion: LUNG, INTEGUMENTARY SYSTEM (SKIN)): active; positive

[C-]#[Si+]
carcinogen call (Species: RAT, Strain/Sex: AF/HAN, Route: INHALATION, Dose: 0, 1000 FIBERS/ML IN AIR 7 HR/D 5 D/WK FOR 1 YR (STUDY DURATION: LIFESPAN), Tumor Site: Type of Lesion: LUNG: ADENOMA, CARCINOMA): active; positive
carcinogen call (Species: RAT, Strain/Sex: F344/FEMALE, Route: INTRAPERITONEAL, Dose: 0, 20 MG SILICON CARBIDE WHISKERS ONCE (STUDY DURATION: LIFESPAN), Tumor Site: Type of Lesion: PLEURAL CAVITY: MESOTHELIOMA): active; positive
